The values that follow come from patent US20230025865A1, “COMPOSITIONS AND METHODS FOR […] […] OF Bcl-2 AND Bcl-xL ANTAGONISTS” (The Regents of the University of Michigan, priority 2019, published 2023).

Series [1] concerns small cell lung cancer (SCLC), colon, breast and acute lymphoblastic leukemia (ALL) cancer xenografts. As to conditions: cited from earlier work.
Series [2] in a line: stability of APG-1252 during formulation preparation and lyophilization process (HPLC). The series is classed as physicochemical. As to conditions: final lyophilization product compared to original drug.
Description: The contents of APG-1252 and its hydrolysis product BM-1244 were measured before and after formulation preparation and lyophilization process by method described above.
Series [3] deals with mantle cell lymphoma (B cell non-Hodgkin's lymphoma) cell line Mino, and Z138 and Rec. Briefly: cytotoxicity, CellTiter96 AQueous cell proliferation assay. The series is classed as cell-based. Particulars: single drug, 72 h. As to the method:
(§1) Cells were seeded in a 96 well plate with 3000 cells per well and culture for 24 h, the appropriate amount of drug in a serial dilution manner was added to each well. After incubation for 72 h, Cell Proliferation was detected by CellTiter96™ AQueous Nonradioactive Cell Proliferation Assay Kit.

Series [4] deals with erythroleukemic HEL, megakaryoblastic leukemic SET-2 and Ruxolitinib resistant HEL cell line. The series is described as above. It is filed as cell-based. Particulars: single drug, 72 h, HEL and SET-2 cell lines. The procedure:
as §1

A short description of series [5]: tissue distribution of APG-1252 and BMS-1244 (FIG. 15). Particulars: for 48 hours. It is filed as in vivo, CD-1 IGS mice.
Excerpt: The APG-1252 and BMS-1244 concentration versus time curve in different tissues in CD-1 IGS mice.

As to `Cc1c(S(C)(=O)=O)c(-c2cc(F)cc(N3CCN(c4ccc(NS(=O)(=O)c5ccc(N[C@H](CCN6CCC(C(=O)OCCCP(=O)(O)O)CC6)CSc6ccccc6)c(S(=O)(=O)C(F)(F)F)c5)cc4)CC3)c2)c(-c2ccc(Cl)cc2)n1C(C)C` [APG-1252, (R)-(3-((1-(3-((4-(N-(4-(4-(3-(2-(4-chlorophenyl)-1-isopropyl-5-methyl-4-(methylsulfonyl)-1H-pyrrol-3-yl)-5-fluorophenyl)piperazin-1-yl)phenyl)sulfamoyl)-2-((trifluoromethyl)sulfonyl)phenyl)amino)-4-(phenylthio)butyl)piperidine-4-carbonyl)oxy)propyl)phosphonic acid], the “combination with chemotherapeutic agents” value in series [1] (in vivo) was “strong synergy with the chemotherapeutic agents”. The “tumor regression as single agent” value in series [1] (twice weekly or weekly dose-schedule) is “complete and persistent tumor regression”. For the same molecule, the “percentage of BM-1244” value in series [2] was found to be 0.16%. Further, the cytotoxicity alone entry in series [3] and in series [4] was “similar” each time.

Regarding `Cc1c(S(C)(=O)=O)c(-c2cc(F)cc(N3CCN(c4ccc(NS(=O)(=O)c5ccc(N[C@H](CCN6CCC(C(=O)O)CC6)CSc6ccccc6)c(S(=O)(=O)C(F)(F)F)c5)cc4)CC3)c2)c(-c2ccc(Cl)cc2)n1C(C)C` [BM-1244, (R)-1-(3-((4-(N-(4-(4-(3-(2-(4-chlorophenyl)-1-isopropyl-5-methyl-4-(methylsulfonyl)-1H-pyrrol-3-yl)-5-fluorophenyl)piperazin-1-yl)phenyl)sulfamoyl)-2-((trifluoromethyl)sulfonyl)phenyl)amino)-4-(phenylthio)butyl)piperidine-4-carboxylic acid], in series [5], the “BMS-1244 relative to APG-1252” value was “less than 10%”.
